Experimental data published in patent EP1202975B1, “SUBSTITUTED POLYCYCLIC ARYL AND HETEROARYL PYRAZINONES USEFUL FOR SELECTIVE INHIBITION OF THE COAGULATION CASCADE” (Pharmacia Corporation, priority 1999, dated 2000).

Legend:
TF-VIIa = target: T1, TF-VIIa (Homo sapiens, UniProt P08709); assay: TF-VIIa Assay; type: biochemical
T1 construct: 2nM recombinant human factor VIIa; purchased American Diagnostica, Greenwich CT; host or cells: soluble TF made in house in E. coli

Human factor Xa = Human factor Xa (Homo sapiens, UniProt P00742)
Human factor Xa, sequence (P00742 235-488 limits assumed): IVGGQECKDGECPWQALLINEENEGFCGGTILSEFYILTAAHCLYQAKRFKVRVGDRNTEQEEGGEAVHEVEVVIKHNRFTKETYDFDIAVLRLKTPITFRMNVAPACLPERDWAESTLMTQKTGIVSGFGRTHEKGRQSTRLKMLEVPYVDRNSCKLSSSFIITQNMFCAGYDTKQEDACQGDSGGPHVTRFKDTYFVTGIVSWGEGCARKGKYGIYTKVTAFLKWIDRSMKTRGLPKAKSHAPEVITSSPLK
Human factor Xa, sequence (P00742 41-179 limits assumed): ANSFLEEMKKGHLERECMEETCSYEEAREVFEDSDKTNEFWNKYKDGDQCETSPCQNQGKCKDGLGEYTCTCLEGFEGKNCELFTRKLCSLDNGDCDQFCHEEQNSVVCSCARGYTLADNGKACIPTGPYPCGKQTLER

T1 sequence (P08709 213-466 limits assumed): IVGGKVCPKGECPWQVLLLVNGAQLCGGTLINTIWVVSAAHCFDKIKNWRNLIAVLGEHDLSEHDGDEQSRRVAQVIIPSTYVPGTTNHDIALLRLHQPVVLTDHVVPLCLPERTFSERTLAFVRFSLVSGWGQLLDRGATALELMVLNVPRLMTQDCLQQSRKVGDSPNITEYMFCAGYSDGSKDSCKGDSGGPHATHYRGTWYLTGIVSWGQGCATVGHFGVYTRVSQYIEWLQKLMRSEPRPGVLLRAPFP
T1 sequence (P08709 61-212 limits assumed): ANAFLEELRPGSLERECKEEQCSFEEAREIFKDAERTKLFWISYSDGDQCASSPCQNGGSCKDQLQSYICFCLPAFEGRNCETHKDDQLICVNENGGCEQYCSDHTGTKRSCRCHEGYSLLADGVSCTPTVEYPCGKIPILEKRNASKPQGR
T1 sequence (P13726 33-251 partner limits assumed): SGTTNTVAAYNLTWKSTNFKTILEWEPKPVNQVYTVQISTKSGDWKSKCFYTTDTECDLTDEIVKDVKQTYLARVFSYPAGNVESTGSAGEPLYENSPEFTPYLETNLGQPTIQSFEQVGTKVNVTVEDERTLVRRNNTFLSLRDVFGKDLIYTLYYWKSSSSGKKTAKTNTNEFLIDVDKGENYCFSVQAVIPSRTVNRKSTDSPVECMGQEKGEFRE

% Inhibition TF-VIIa (100 µM) (TF-VIIa) [%] | % Inhibition Factor Xa (100 µM) (Human factor Xa) [%] | SMILES
0 | 0 | O=C(Cn1c(-c2ccc(-c3ccccc3)cc2)c(Cl)nc(NCc2ccncc2)c1=O)NCCc1ccncc1 [Example E-0056]
0 | 6 | O=C(Cn1c(Cc2ccccc2)c(Cl)nc(NCc2ccccc2)c1=O)NCCc1ccncc1 [Example E-0057]
0 | 0 | O=C(Cn1c(Cc2ccccc2)c(Cl)nc(NCCc2ccccc2)c1=O)NCCc1ccncc1 [Example E-0058]
0 | 0 | O=C(Cn1c(Cc2ccccc2)c(Cl)nc(NCCc2cccc(Cl)c2)c1=O)NCCc1ccncc1 [Example E-0059]
0 | 0 | O=C(Cn1c(Cc2ccccc2)c(Cl)nc(NCCc2ccc(Cl)cc2)c1=O)NCCc1ccncc1 [Example E-0060]
0 | 0 | O=C(Cn1c(Cc2ccccc2)c(Cl)nc(NCCc2cccnc2)c1=O)NCCc1ccncc1 [Example E-0061]
0 | 0 | O=C(Cn1c(Cc2ccccc2)c(Cl)nc(NCCc2ccncc2)c1=O)NCCc1ccncc1 [Example E-0062]
0 | 0 | O=C(Cn1c(Cc2ccccc2)c(Cl)nc(NCCN2CCOCC2)c1=O)NCCc1ccncc1 [Example E-0063]
0 | 0 | O=C(Cn1c(Cc2ccccc2)c(Cl)nc(NCc2ccncc2)c1=O)NCCc1ccncc1 [Example E-0064]
0 | 0 | O=C(Cn1c(CCc2ccccc2)c(Cl)nc(NCc2ccccc2)c1=O)NCCc1ccncc1 [Example E-0065]
0 | 0 | O=C(Cn1c(CCc2ccccc2)c(Cl)nc(NCCc2ccccc2)c1=O)NCCc1ccncc1 [Example E-0066]
0 | 0 | O=C(Cn1c(CCc2ccccc2)c(Cl)nc(NCCc2cccc(Cl)c2)c1=O)NCCc1ccncc1 [Example E-0067]
0 | 0 | O=C(Cn1c(CCc2ccccc2)c(Cl)nc(NCCc2ccc(Cl)cc2)c1=O)NCCc1ccncc1 [Example E-0068]
0 | 0 | O=C(Cn1c(CCc2ccccc2)c(Cl)nc(NCCc2cccnc2)c1=O)NCCc1ccncc1 [Example E-0069]
0 | 0 | O=C(Cn1c(CCc2ccccc2)c(Cl)nc(NCCc2ccncc2)c1=O)NCCc1ccncc1 [Example E-0070]
0 | 0 | O=C(Cn1c(CCc2ccccc2)c(Cl)nc(NCCN2CCOCC2)c1=O)NCCc1ccncc1 [Example E-0071]
0 | 0 | O=C(Cn1c(CCc2ccccc2)c(Cl)nc(NCc2ccncc2)c1=O)NCCc1ccncc1 [Example E-0072]
0 | 3 | COc1ccc(-c2c(Cl)nc(NCc3ccccc3)c(=O)n2CC(=O)NCCc2ccncc2)cc1 [Example E-0097]
0 | 2 | COc1ccc(-c2c(Cl)nc(NCc3ccccc3)c(=O)n2CC(=O)NCCc2cccnc2)cc1 [Example E-0098]
3 | 5 | COc1ccc(-c2c(Cl)nc(NCCc3cccc(Cl)c3)c(=O)n2CC(=O)NCCc2cccnc2)cc1 [Example E-0104]
4 | 6 | COc1ccc(-c2c(Cl)nc(NCCc3ccc(Cl)cc3)c(=O)n2CC(=O)NCCc2cccnc2)cc1 [Example E-0107]
0 | 3 | O=C(Cn1c(-c2ccc(-c3ccccc3)cc2)c(Cl)nc(NCc2ccccc2)c1=O)NCCc1cccnc1 [Example E-0110]

Further lines, the molecule ahead of its results:

SMILES | % Inhibition TF-VIIa (100 µM) (TF-VIIa) [%] | % Inhibition Factor Xa (100 µM) (Human factor Xa) [%]
O=C(Cn1c(-c2ccccc2)c(Cl)nc(NCCN2CCOCC2)c1=O)NCCc1ccncc1 [Example E-0015] | 0 | 0
O=C(Cn1c(-c2ccccc2)c(Cl)nc(NCc2ccncc2)c1=O)NCCc1ccncc1 [Example E-0016] | 0 | 0
COc1ccc(-c2c(Cl)nc(NCc3ccccc3)c(=O)n2CC(=O)NCCc2ccncc2)cc1 [Example E-0033] | 0 | 0
COc1ccc(-c2c(Cl)nc(NCCc3cccnc3)c(=O)n2CC(=O)NCCc2ccncc2)cc1 [Example E-0037] | 0 | 0
COc1ccc(-c2c(Cl)nc(NCCc3ccncc3)c(=O)n2CC(=O)NCCc2ccncc2)cc1 [Example E-0038] | 0 | 0
COc1ccc(-c2c(Cl)nc(NCCN3CCOCC3)c(=O)n2CC(=O)NCCc2ccncc2)cc1 [Example E-0039] | 0 | 1
COc1ccc(-c2c(Cl)nc(NCc3ccncc3)c(=O)n2CC(=O)NCCc2ccncc2)cc1 [Example E-0040] | 0 | 0
O=C(Cn1c(-c2ccc3c(c2)OCO3)c(Cl)nc(NCc2ccccc2)c1=O)NCCc1ccncc1 [Example E-0041] | 0 | 0
O=C(Cn1c(-c2ccc3c(c2)OCO3)c(Cl)nc(NCCc2ccccc2)c1=O)NCCc1ccncc1 [Example E-0042] | 0 | 0
O=C(Cn1c(-c2ccc3c(c2)OCO3)c(Cl)nc(NCCc2cccc(Cl)c2)c1=O)NCCc1ccncc1 [Example E-0043] | 0 | 0
O=C(Cn1c(-c2ccc3c(c2)OCO3)c(Cl)nc(NCCc2ccc(Cl)cc2)c1=O)NCCc1ccncc1 [Example E-0044] | 0 | 0
O=C(Cn1c(-c2ccc3c(c2)OCO3)c(Cl)nc(NCCc2cccnc2)c1=O)NCCc1ccncc1 [Example E-0045] | 0 | 0
O=C(Cn1c(-c2ccc3c(c2)OCO3)c(Cl)nc(NCCc2ccncc2)c1=O)NCCc1ccncc1 [Example E-0046] | 0 | 0
O=C(Cn1c(-c2ccc3c(c2)OCO3)c(Cl)nc(NCCN2CCOCC2)c1=O)NCCc1ccncc1 [Example E-0047] | 0 | 0
O=C(Cn1c(-c2ccc3c(c2)OCO3)c(Cl)nc(NCc2ccncc2)c1=O)NCCc1ccncc1 [Example E-0048] | 0 | 0
O=C(Cn1c(-c2ccc(-c3ccccc3)cc2)c(Cl)nc(NCCc2cccnc2)c1=O)NCCc1ccncc1 [Example E-0053] | 0 | 0
O=C(Cn1c(-c2ccc(-c3ccccc3)cc2)c(Cl)nc(NCCN2CCOCC2)c1=O)NCCc1ccncc1 [Example E-0055] | 0 | 0
